Consider 1 compound from patent US5043332A, “Novel 11β-substituted -19-nor-steriods” (priority 1981, dated 1991).

The experiment has as its system uterine endometrium. As to the kind of experiment: Anti-progestomimetic activity versus progesterone, oral, change in uterine endometrium (McPhail). It is filed as in vivo, immature female rabbits. As to the method:
IV. Progestomimetic and Anti-progestomimetic Activity
a) Groups of immature female rabbits weighing about 1 kg had administered to them subcutaneously from day 1 to day 5, 5 μg of estradiol. The product tested was afterward administered orally from day 8 to day 11 in a volume of 0.5 cm^3 of water containing 0.5% of carboxymethyl cellulose and 0.2% of Tween. On day 12, the rabbits were sacrificed, their uteruses were retained and fixed in Bouin's solution and histologically studied.
The changes in the uterine endometrium were noted according to the method of McPhail.

As for `CC#C[C@]1(O)CC[C@H]2[C@@H]3CCC4=CC(=O)CCC4=C3[C@@H](c3ccc(N(C)C)cc3)C[C@@]21C` [Example 19, 11β-[4-(N,N-dimethylamino)-phenyl]-17α-(prop-1-ynyl)-Δ^4,9-estradiene-17β-ol-3-one], the “CHANGE IN THE ENDOMETRIUM” value is reported as 2.8 McPHAIL UNTS (progesterone 0.2 mg subcutaneously + 0.3 mg/kg by mouth); 2.1 McPHAIL UNTS (progesterone 0.2 mg subcutaneously + 1 mg/kg by mouth); 1.4 McPHAIL UNTS (progesterone 0.2 mg subcutaneously + 3 mg/kg by mouth); 0.6 McPHAIL UNTS (progesterone 0.2 mg subcutaneously + 10 mg/kg by mouth); 0 McPHAIL UNTS (progesterone 0.2 mg subcutaneously + 20 mg/kg by mouth).
